Data published in ChEMBL document CHEMBL1201862, “PubChem BioAssay data set” (2004).
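Following 48 hours of exposure in 96-well plates, responses at five concentrations were used to interpolate endpoints linearly. The concentration for 50% growth inhibition is given as GI50.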 Active and inactive are the calls of the source. Rule as the data show it: active = GI50 up to about 1.1 µM and inactive = higher.

Assays:
Experiment in all cases: DTP human tumour cell line panel, 48 h
[1] = system: XF498
[2] = system: M19-MEL
[3] = system: LXFL 529
[4] = system: DMS-273
[5] = system: RXF 631
[6] = system: KM-20L2
[7] = system: DMS-114
[8] = system: SNB-78
[9] = system: HOP-18

Compound | GI50 [1] | GI50 [2] | GI50 [3] | GI50 [4] | GI50 [5] | GI50 [6] | GI50 [7] | GI50 [8] | GI50 [9]
Oc1cc(-c2ccc[nH]2)nc2cc3c(cc12)OCO3 | 21.1 µM (inactive) | 39 µM (inactive) | 28.4 µM (inactive) | 32.2 µM (inactive) | 47.5 µM (inactive) |  |  |  | 
COc1ccc(C2C(C)C(=O)C(C)C(c3ccc(OC)cc3)N2N=O)cc1 (centres undefined) | 166 µM (inactive) | > 750 µM (inactive) | > 750 µM (inactive) | > 514 µM (inactive) | > 95.3 µM (inactive) | > 925 µM (inactive) | > 750 µM (inactive) | 121 µM (inactive) | > 100 µM (inactive)
O=C1C=C(NCCc2ccccc2)c2ccccc2C1=O |  | 0.276 µM (active) | 5.86 µM (inactive) | 2.77 µM (inactive) |  | 6.95 µM (inactive) | 1.92 µM (inactive) | 16.6 µM (inactive) | 1.63 µM (inactive)
Cc1cc(N(CCC#N)S(=O)(=O)c2ccccc2)ccc1/C=C1N=C(/C=C/c2ccccc2)OC\1=O | > 100 µM (inactive) |  | 87.3 µM (inactive) | > 100 µM (inactive) |  | > 100 µM (inactive) | 94.4 µM (inactive) | 80.5 µM (inactive) | 
CSC(=N\c1ccccc1)/N=C(\SCc1ccccc1)N(C)C | 1.33 µM (inactive) | 1.66 µM (inactive) | 0.454 µM (active) | 0.59 µM (active) | 1.38 µM (inactive) |  | 1.09 µM (active) | 1.63 µM (inactive) | 0.774 µM (active)
COC1N(C2CC(O)C(CO)O2)C(=O)NC(=O)C1(F)Br (centres undefined) | 17.3 µM (inactive) |  | 24.4 µM (inactive) | 14.7 µM (inactive) | 6.84 µM (inactive) | 16.6 µM (inactive) | 43.9 µM (inactive) | > 50 µM (inactive) | > 50 µM (inactive)
O=C(NC12CC3CC(CC(C3)C1)C2)C(=O)c1c[nH]c2ccc([N+](=O)[O-])cc12 | 18.2 µM (inactive) | 60 µM (inactive) | 20.2 µM (inactive) | 5.66 µM (inactive) |  | 36.5 µM (inactive) | 43.9 µM (inactive) |  | 28.6 µM (inactive)
COc1cc(-c2cccs2)sc1-c1cccs1 |  | 32.8 µM (inactive) | 45 µM (inactive) | 12.5 µM (inactive) |  | 26.7 µM (inactive) | 30 µM (inactive) | 36.2 µM (inactive) | 1.58 µM (inactive)
COc1ccc(/C=C2\C(=O)N(C(=O)c3ccc(NC(C)=O)cc3)N=C2C)cc1OC | > 100 µM (inactive) | > 100 µM (inactive) |  | > 100 µM (inactive) |  |  | > 100 µM (inactive) | > 100 µM (inactive) | 14.6 µM (inactive)
O=C(Nc1nnn[nH]1)c1nc(O)cc(-c2ccccc2)n1 | > 100 µM (inactive) | > 100 µM (inactive) | > 100 µM (inactive) |  |  | > 100 µM (inactive) | > 100 µM (inactive) | > 100 µM (inactive) | 
Cc1cnc(NCCCN(C)C)c2c1[nH]c1ccc3cc(O)ccc3c12 | 0.222 µM (active) | 0.383 µM (active) | 0.142 µM (active) | 0.462 µM (active) |  | 0.266 µM (active) | 0.0962 µM (active) | 0.929 µM (active) | 1.43 µM (inactive)
CCOC(=O)C1=C(C)N(NC(N)=O)C2(N)N(NC(N)=O)C(C)=C(C(=O)OCC)C12C(=O)OCC (centres undefined) | > 100 µM (inactive) | > 100 µM (inactive) | > 100 µM (inactive) | > 100 µM (inactive) |  | > 100 µM (inactive) | > 100 µM (inactive) |  | 
Cc1cc(-c2c(F)cc3c4nn([C@H]5CC[C@@H](N(C)C)CC5)c(=O)c-4cn(C4CC4)c3c2F)cc(C)n1 | 0.318 µM (active) | 0.0891 µM (active) | 0.0528 µM (active) | 0.00594 µM (active) | 0.0355 µM (active) | 0.14 µM (active) | 0.024 µM (active) | 0.28 µM (active) | 0.197 µM (active)
O=[N+]([O-])c1nccn1COCCBr | > 100 µM (inactive) | > 100 µM (inactive) | > 100 µM (inactive) |  |  | > 100 µM (inactive) | > 100 µM (inactive) |  | 
CC(=O)NNc1nc(C)c(C(=O)NNC(=O)C(=O)Nc2ccc(C)cc2[N+](=O)[O-])s1 |  | 60.4 µM (inactive) | > 100 µM (inactive) | > 100 µM (inactive) | > 100 µM (inactive) | > 100 µM (inactive) | > 100 µM (inactive) | > 100 µM (inactive) | > 100 µM (inactive)
Nc1ncc(CN2CCCC2)c(-c2ccccc2O)n1 | > 750 µM (inactive) | > 750 µM (inactive) | > 750 µM (inactive) | > 750 µM (inactive) |  | > 750 µM (inactive) | > 750 µM (inactive) |  | 433 µM (inactive)
CCOC(=O)C1(Cc2ccccc2)CCCCCN1 (centres undefined) |  | > 100 µM (inactive) | > 100 µM (inactive) | > 100 µM (inactive) | > 100 µM (inactive) | > 100 µM (inactive) | > 100 µM (inactive) | > 100 µM (inactive) | > 100 µM (inactive)
C=CCCCCCCCCC(=O)NS(=O)(=O)c1ccccc1 | > 100 µM (inactive) | > 100 µM (inactive) | > 100 µM (inactive) | 88.1 µM (inactive) | > 100 µM (inactive) | > 100 µM (inactive) | > 100 µM (inactive) | > 100 µM (inactive) | 40.9 µM (inactive)
CC(C)c1ccccc1NC(=O)/C(Cl)=C1/Sc2ccccc2NC1=O |  | 34 µM (inactive) | 14.5 µM (inactive) |  | 34 µM (inactive) | 24.2 µM (inactive) | 18.5 µM (inactive) | 30.5 µM (inactive) | 
COc1ccc(C=O)c([N+](=O)[O-])c1 | 13.3 µM (inactive) | 63.5 µM (inactive) |  | 25.4 µM (inactive) | 57.7 µM (inactive) | 14 µM (inactive) | 24 µM (inactive) | 42.4 µM (inactive) | 38.8 µM (inactive)
CCOC(=O)C1S/C(=N/c2ccc(Cl)cc2C)N=C1C (centres undefined) | 20.9 µM (inactive) | 20 µM (inactive) | 18 µM (inactive) | 24.2 µM (inactive) | 21.1 µM (inactive) | 17.4 µM (inactive) | 12.9 µM (inactive) | 20.4 µM (inactive) | 45.8 µM (inactive)
Nc1nc(N)c2ncn(CCCC(c3ccccc3)P(=O)(O)O)c2n1 (centres undefined) |  | > 100 µM (inactive) | > 100 µM (inactive) | > 100 µM (inactive) |  | > 100 µM (inactive) | > 100 µM (inactive) | > 100 µM (inactive) | > 100 µM (inactive)
C[C@@H]1[C@H](c2ccccc2)O[B-]2(c3ccc(Br)cc3)OC(=O)C[N+]12C (some centres undefined) | 97.1 µM (inactive) | > 100 µM (inactive) | 86.5 µM (inactive) |  | > 100 µM (inactive) | > 100 µM (inactive) | > 100 µM (inactive) | 35.4 µM (inactive) | > 100 µM (inactive)
COc1ccc(C2Oc3c(cc(O)c(OC)c3C)[C@@H]2C)cc1OC (some centres undefined) | 51.8 µM (inactive) | 86.1 µM (inactive) | 65.9 µM (inactive) | 47.6 µM (inactive) | > 100 µM (inactive) | > 100 µM (inactive) | 33 µM (inactive) | 69.8 µM (inactive) | > 100 µM (inactive)
C/C(=N\NC(=O)C[n+]1ccccc1)c1sc(-c2nc(C)c(/C(C)=N/NC(=O)C[n+]3ccccc3)s2)nc1C |  | > 100 µM (inactive) | 95.9 µM (inactive) |  |  | > 100 µM (inactive) | 38.3 µM (inactive) | > 100 µM (inactive) | 
C=CCc1cc(-c2cc(CC=C)c(O)c(CN(CC)CC)c2)cc(CN(CC)CC)c1O |  | 18.3 µM (inactive) | 46.6 µM (inactive) | 32.2 µM (inactive) | 14.6 µM (inactive) | 14.5 µM (inactive) | > 52.6 µM (inactive) | > 100 µM (inactive) | > 100 µM (inactive)
CC(=O)O[C@H]1C(=O)[C@@]2(C)[C@H]([C@H](OC(=O)c3ccccc3)[C@]3(O)C[C@H](OC(=O)[C@H](O)[C@@H](NC(=O)c4ccccc4)c4ccccc4)C(C)=C1C3(C)C)[C@]1(OC(C)=O)CO[C@@H]1C[C@@H]2O [PACLITAXEL] | 0.00348 µM (active) |  | 0.528 µM (active) | 0.00313 µM (active) |  |  |  | 0.00982 µM (active) | 0.157 µM (active)
